These results are taken from patent publication US20030176479A1, “Use of selective EP4 receptor agonists for the treatment of liver failure, loss of patency of the ductus arteriosus, glaucoma or ocular hypertension” (priority 2002, published 2003).

Molecules are shown by their SMILES.

Holding throughout (settings): displacement of 3H-prostaglandin E2, 293S membranes, 1 hour at 25° C.
One assay addresses T1, rat EP2 receptor (Rattus norvegicus, UniProt Q62928).
T1 construct: The full-length rat EP2 receptor is made in accordance with the procedure in Nemoto et al; expressed in transfected cells
Kind of assay: Rat EP2 receptor binding assay (3H-PGE2 displacement, 293S cell membranes). From the text: (§1) The compounds of Formula I or II, which are useful in the methods of the present invention, bind to the prostaglandin E2 type 4 receptor (EP4 receptor). The full-length coding sequence for the human EP1 receptor is made in accordance with the procedure in Funk et al., Journal of Biological Chemistry, 1993, 268, 26767-26772. The full-length rat EP2 receptor is made in accordance with the procedure in Nemoto et al., Prostaglandins and other Lipid Mediators, 1997, 54, 713-725. The full-length coding sequence for the human EP3 receptor is made in accordance with the procedure in Regan et al., British Journal of Pharmacology, 1994, 112, 377-385. The full-length coding sequence for the rat EP4 receptor is made in accordance with the procedure in Sando et al., Biochem. Biophys. Res. Comm. 1994, 200,1329-1333. These full-length receptors are used to prepare 293S cells expressing the human EP1, rat EP2, human EP3 or rat EP4 receptors.
(§2) Human EP1, Rat EP2, Human EP3, Rat EP4 Receptor Binding Assay
(§3) The full-length receptors described above are used to prepare 293S cells expressing the EP1, EP2, EP3, and EP4 receptors.
(§4) 293S cells expressing either the human EP1, rat EP2, human EP3 or rat EP4 prostaglandin E2 receptors are generated according to methods known to those skilled in the art. Typically, PCR (polymerase chain reaction) primers corresponding to the 5′ and 3′ ends of the published full length receptor are made according to the well known methods disclosed above and are used in an RT-PCR (reverse transcriptase-polymerase chain reaction) reaction using the total RNA from human kidney (for EP1), rat kidney (for EP2), human lung (for EP3), or rat kidney (EP4) as a source. PCR products are cloned by the TA overhang method into pCR2.1 (Invitrogen Corporation, Carlsbad, Calif.) and identity of the cloned receptor is confirmed by DNA sequencing. For expression of the rat EP2 receptor, the confirmed cDNA is subcloned into the mammalian expression vector PURpCl, a vector generated by subcloning the selectable marker for puromycin resistance into the mammalian expression vector pCl (Promega, Madison, Wis.)
(§5) 293S cells are transfected with either the cloned human EP1 or EP3 receptor in pcDNA3 by electroporation. Stable cell lines expressing either the human EP1 or EP3 receptor are established following selection of transfected cells with G418. 293S cells are transfected with the cloned rat EP2 receptor in PURpCi by lipid mediated transfection. Stable cell lines expressing the rat EP2 receptor are established following selection of transfected cells with puromycin. 293S cells are transfected with the cloned rat EP4 receptor in pcDNA3 by lipid mediated transfection. Stable cell lines expressing the rat EP4 receptor are established following selection of transfected cells with Geneticin® (Invitrogen, Carlsbad, Calif.).
(§6) Clonal cell lines expressing the maximal number of receptors are chosen following a whole cell ^3H-PGE2 binding assay using unlabeled PGE2 as a competitor.
(§7) Membrane Preparation: All operations are performed at 4° C. Transfected cells expressing either prostaglandin E2 type 1, type 2, type 3, or type 4 (EP1, EP2, EP3, or EP4, respectively) receptors are harvested and suspended to 2 million cells per ml in Buffer A [50 mM Tris-HCl (pH 7.4), 10 mM MgCI2, 1 mM EDTA, 1 mM Pefabloc peptide, (Boehringer Mannheim Corp., Indianapolis, Ind.), 10 uM Phosporamidon peptide, (Sigma, St. Louis, Mo.), 1 uM pepstatin A peptide, (Sigma, St. Louis, Mo.), 10 uM elastatinal peptide, (Sigma, St. Louis, Mo.), 100 uM antipain peptide, (Sigma, St. Louis, Mo.)]. The cells are lysed by sonification with a Branson Sonifier (Branson Ultrasonics Corporation, Danbury, Conn.) in 2 fifteen-second bursts. Unlysed cells and debris are removed by centrifugation at 100 ×g for 10 min. Membranes are then harvested by centrifugation at 45,000×g for 30 minutes. […]

For the next assay, the target named is T2, human EP3 receptor (Homo sapiens, UniProt P43115).
T2 construct: expressed in transfected cells
T2 sequence (P43115 1-390): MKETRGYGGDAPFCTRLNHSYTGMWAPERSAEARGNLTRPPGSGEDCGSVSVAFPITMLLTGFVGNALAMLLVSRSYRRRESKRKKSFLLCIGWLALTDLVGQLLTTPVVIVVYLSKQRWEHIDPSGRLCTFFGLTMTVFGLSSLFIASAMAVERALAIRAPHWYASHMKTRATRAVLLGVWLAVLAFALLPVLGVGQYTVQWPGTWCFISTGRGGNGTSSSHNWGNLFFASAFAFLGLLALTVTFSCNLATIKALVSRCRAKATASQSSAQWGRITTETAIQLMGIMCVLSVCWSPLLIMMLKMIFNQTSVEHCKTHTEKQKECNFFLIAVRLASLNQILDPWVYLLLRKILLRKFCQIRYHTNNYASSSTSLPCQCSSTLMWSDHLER
Kind of assay: Human EP3 receptor binding assay (3H-PGE2 displacement, 293S cell membranes).
Excerpt: as §1, §2, §3, §4, §5, §6, §7

The target of the next assay is T3, human EP1 receptor (Homo sapiens, UniProt P34995).
T3 construct: expressed in transfected cells
T3 sequence (P34995 1-402): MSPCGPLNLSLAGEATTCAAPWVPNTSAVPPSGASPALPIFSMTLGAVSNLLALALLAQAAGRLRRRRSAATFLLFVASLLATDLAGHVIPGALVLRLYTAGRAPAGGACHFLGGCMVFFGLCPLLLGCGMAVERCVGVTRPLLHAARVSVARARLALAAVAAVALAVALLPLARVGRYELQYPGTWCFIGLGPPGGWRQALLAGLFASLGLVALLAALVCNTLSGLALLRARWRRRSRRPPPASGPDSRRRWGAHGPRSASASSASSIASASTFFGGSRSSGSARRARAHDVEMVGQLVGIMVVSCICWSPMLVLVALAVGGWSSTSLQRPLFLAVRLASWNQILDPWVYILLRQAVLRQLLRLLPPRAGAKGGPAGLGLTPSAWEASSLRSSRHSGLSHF
Nature of the assay: Human EP1 receptor binding assay (3H-PGE2 displacement, 293S cell membranes).
Excerpt: as §1, §2, §3, §4, §5, §6, §7

Another assay addresses T4, rat EP4 receptor (Rattus norvegicus, UniProt P43114).
T4 construct: expressed in transfected cells
Nature of the assay: Rat EP4 receptor binding assay (3H-PGE2 displacement, 293S cell membranes).
Excerpt: as §1, §2, §3, §4, §5, §6, §7

T1 sequence (Q62928 whole entry): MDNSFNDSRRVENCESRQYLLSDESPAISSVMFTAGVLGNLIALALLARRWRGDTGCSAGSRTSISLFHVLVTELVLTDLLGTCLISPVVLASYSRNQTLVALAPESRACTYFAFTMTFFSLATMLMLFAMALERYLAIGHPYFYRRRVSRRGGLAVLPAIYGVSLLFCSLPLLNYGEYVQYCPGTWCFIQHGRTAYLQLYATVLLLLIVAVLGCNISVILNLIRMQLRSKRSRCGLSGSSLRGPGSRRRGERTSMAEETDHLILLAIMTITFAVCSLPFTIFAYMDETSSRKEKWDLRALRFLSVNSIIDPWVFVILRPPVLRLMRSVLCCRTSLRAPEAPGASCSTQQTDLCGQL
T4 sequence (P43114 whole entry): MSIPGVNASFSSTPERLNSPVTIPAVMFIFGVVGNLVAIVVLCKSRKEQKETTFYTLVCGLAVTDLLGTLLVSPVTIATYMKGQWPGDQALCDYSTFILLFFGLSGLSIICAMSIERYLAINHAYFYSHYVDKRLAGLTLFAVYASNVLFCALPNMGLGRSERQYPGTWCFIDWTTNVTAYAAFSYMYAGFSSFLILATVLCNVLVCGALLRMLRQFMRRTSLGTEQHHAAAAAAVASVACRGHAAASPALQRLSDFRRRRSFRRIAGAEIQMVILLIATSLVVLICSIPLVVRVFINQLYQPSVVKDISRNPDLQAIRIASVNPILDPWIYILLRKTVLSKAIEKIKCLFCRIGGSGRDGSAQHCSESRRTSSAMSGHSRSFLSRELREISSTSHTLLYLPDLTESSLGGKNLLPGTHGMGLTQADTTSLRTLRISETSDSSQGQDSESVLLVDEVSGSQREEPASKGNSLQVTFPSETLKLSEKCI

Regarding `O=C(O)CCCCCCN1C(=O)CC[C@@H]1CC[C@@H](O)Cc1cccc(Cl)c1` [Example 1, 7-{2S-[4-(3-Chloro-phenyl)-3R-hydroxy-butyl]-5-oxo-pyrrolidin-1-yl}-heptanoic acid], the half-maximal inhibitory concentration (IC50) (as a rule, the concentration that gives 50% inhibition) at rat EP2 receptor was > 3.2 µM; at human EP3 receptor it was > 3.2 µM; at human EP1 receptor, > 3.2 µM; at rat EP4 receptor it was 0.022 µM.
In the case of `O=C(O)CCCCCCN1C(=O)CC[C@@H]1CC[C@@H](O)Cc1cccc(C(F)(F)F)c1` [Example 2, 7-{2S-[3R-hydroxy-4-(3-trifluoromethyl-phenyl)-butyl]-5-oxo-pyrrolidin-1-yl}-heptanoic acid], the half-inhibitory concentration (IC50) is 2.76 µM on rat EP2 receptor, > 3.2 µM at human EP3 receptor, > 3.2 µM on human EP1 receptor and 0.021 µM on rat EP4 receptor.
With `O=C1CC[C@H](CCC(O)Cc2cccc(Cl)c2)N1CCCCCCc1nn[nH]n1` (stereo partly drawn) [Example 3, 5S-[4-(3-Chloro-phenyl)-3-hydroxy-butyl]-1-[6-(2H-tetrazol-5-yl)-hexyl]-pyrrolidin-2-one], the IC50 is 2.37 µM on rat EP2 receptor, > 3.2 µM at human EP3 receptor, > 3.2 µM at human EP1 receptor and 0.038 µM at rat EP4 receptor.
For `O=C1CC[C@H](CC[C@@H](O)Cc2cccc(C(F)(F)F)c2)N1CCCCCCc1nn[nH]n1` [Example 4, 5S-[3R-Hydroxy-4-(3-trifluoromethyl-phenyl)-butyl]-1-[6-(2H-tetrazol-5-yl)-hexyl]-pyrrolidin-2-one], the IC50 on rat EP2 receptor was > 3.2 µM; at human EP3 receptor it was > 3.2 µM; at human EP1 receptor, > 3.2 µM; on rat EP4 receptor, 0.033 µM.
Consider `O=C1CCC(CCC(O)Cc2cccc(-c3ccccc3)c2)N1CCCCCCc1nn[nH]n1` (stereo not drawn) [Example 6, 5-(4-Biphenyl-3-yl-3-hydroxy-butyl)-1-[6-(2H-tetrazol-5-yl)-hexyl]-pyrrolidin-2-one], for which the concentration for half-maximal inhibition (IC50) at rat EP2 receptor was 3.05 µM; on human EP3 receptor, > 3.2 µM; at human EP1 receptor, > 3.2 µM; on rat EP4 receptor it was 0.05 µM.
On to `O=C(O)CCCCCCN1C(=O)CCC1CCC(O)Cc1ccccc1` (stereo not drawn) [Example 9, 7-(2-(3-hydroxy-4-phenyl-butyl)-5-oxo-pyrrolidin-1-yl)-heptanoic acid], for which the IC50 on rat EP2 receptor is > 3.2 µM; on human EP3 receptor, > 3.2 µM; at human EP1 receptor, > 3.2 µM; at rat EP4 receptor, 0.054 µM.
